Laboratory results as given in the supplement of paper PMC10307832.

Tests used:
Experiment in all cases: relative viability (nuclei count vs DMSO), 5 days (fraction); higher = more cells survive
Venetoclax + Lapatinib = compound: CC1(C)CCC(CN2CCN(c3ccc(C(=O)NS(=O)(=O)c4ccc(NCC5CCOCC5)c([N+](=O)[O-])c4)c(Oc4cnc5[nH]ccc5c4)c3)CC2)=C(c2ccc(Cl)cc2)C1 [Venetoclax] + CS(=O)(=O)CCNCc1ccc(-c2ccc3ncnc(Nc4ccc(OCc5cccc(F)c5)c(Cl)c4)c3c2)o1 [Lapatinib] (partner 2 µM)
Method in brief: (§1)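 After 5 days of treatment, lung cancer cells in 1536-well plates were fixed and stained in a single step (final 0.05% Triton X-100, 1% formaldehyde, 1 ug/ml Hoechst) and their nuclei counted on 4× images. Treatment had been applied by pin tool the day after seeding as one drug alone or as a fixed anchor-drug dose with five library-drug doses (not always all listed) in √10 steps. Relative viability is the nuclei count of treated wells divided by that of vehicle wells, and values are medians of duplicate plates.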

Venetoclax + Olaparib = compound: CC1(C)CCC(CN2CCN(c3ccc(C(=O)NS(=O)(=O)c4ccc(NCC5CCOCC5)c([N+](=O)[O-])c4)c(Oc4cnc5[nH]ccc5c4)c3)CC2)=C(c2ccc(Cl)cc2)C1 [Venetoclax] + O=C(c1cc(Cc2n[nH]c(=O)c3ccccc23)ccc1F)N1CCN(C(=O)C2CC2)CC1 [Olaparib] (partner 8 µM)
Method in brief: as §1

Selumetinib + Tozasertib = compound: Cn1cnc2c(F)c(Nc3ccc(Br)cc3Cl)c(C(=O)NOCCO)cc21 [Selumetinib] + Cc1cc(Nc2cc(N3CCN(C)CC3)nc(Sc3ccc(NC(=O)C4CC4)cc3)n2)n[nH]1 [Tozasertib] (partner 0.1 µM)
Method in brief: as §1

Selumetinib + Decitabine = compound: Cn1cnc2c(F)c(Nc3ccc(Br)cc3Cl)c(C(=O)NOCCO)cc21 [Selumetinib] + Nc1ncn([C@H]2C[C@H](O)[C@@H](CO)O2)c(=O)n1 [Decitabine] (partner 2 µM)
Method in brief: as §1

Cell Line	relative viability (Venetoclax + Lapatinib; first compound 0.01 µM)	relative viability (Venetoclax + Lapatinib; first compound 0.03162 µM)	relative viability (Venetoclax + Lapatinib; first compound 0.1 µM)	relative viability (Venetoclax + Lapatinib; first compound 0.3162 µM)	relative viability (Venetoclax + Lapatinib; first compound 1 µM)	relative viability (Venetoclax + Olaparib; first compound 0.01 µM)	relative viability (Venetoclax + Olaparib; first compound 0.03162 µM)	relative viability (Venetoclax + Olaparib; first compound 0.1 µM)	relative viability (Venetoclax + Olaparib; first compound 0.3162 µM)	relative viability (Venetoclax + Olaparib; first compound 1 µM)	relative viability (Selumetinib + Tozasertib; first compound 0.02 µM)	relative viability (Selumetinib + Tozasertib; first compound 0.06325 µM)	relative viability (Selumetinib + Tozasertib; first compound 0.2 µM)	relative viability (Selumetinib + Tozasertib; first compound 0.6325 µM)	relative viability (Selumetinib + Decitabine; first compound 0.02 µM)	relative viability (Selumetinib + Decitabine; first compound 0.06325 µM)	relative viability (Selumetinib + Decitabine; first compound 0.2 µM)	relative viability (Selumetinib + Decitabine; first compound 0.6325 µM)
NCI-H1755	1.05	1.08	0.796	1.04	0.961	0.879	0.873	0.917	0.832	0.831	0.597	0.552	0.563	0.558	0.716	0.729	0.662	0.73
NCI-H1793	0.677	0.758	0.443	0.613	0.551	0.867	0.892	0.883	0.806	0.712	0.314	0.269	0.235	0.221	0.494	0.527	0.468	0.401
NCI-H1915	0.966	0.935	0.918	0.926	0.9	0.275	0.288	0.264	0.272	0.231	0.428	0.568	0.319	0.303	0.28	0.263	0.239	0.246
NCI-H1944	0.859	0.654	0.802	0.853	0.912	0.627	0.394	0.392	0.418	0.406	0.238	0.228	0.233	0.203	0.433	0.456	0.397	0.426
NCI-H1975	1.02	0.875	0.903	0.948	0.863	0.754	0.821	0.74	0.811	0.674	0.753	0.703	0.684	0.591	0.615	0.384	0.385	0.334
NCI-H1993	0.783	0.861	0.796	0.733	0.813	1.03	0.952	0.986	0.99	1.08	0.492	0.557	0.575	0.601	0.571	0.615	0.549	0.604
NCI-H2009	1.06	0.902	1.05	1.01	0.851	0.662	0.729	0.681	0.655	0.586	0.606	0.502	0.499	0.384	0.354	0.292	0.35	0.279
NCI-H2023	0.935	0.888	0.748	0.898	0.627	0.425	0.498	0.453	0.561	0.455	0.362	0.317	0.267	0.253	0.232	0.211	0.209	0.247
NCI-H2085	0.658	0.849	0.749	0.821	0.747	0.676	0.758	0.744	0.755	0.75	0.737	0.592	0.552	0.593	0.524	0.593	0.537	0.544
NCI-H2087	0.958	1.16	1.07	1.09	1.05	0.611	0.736	0.45	0.567	0.692	0.194	0.211	0.166	0.147	0.267	0.253	0.249	0.213
NCI-H2126	0.738	0.731	0.734	0.769	0.73	0.85	0.936	0.838	0.915	0.913	0.784	0.741	0.728	0.638	0.559	0.513	0.564	0.56
NCI-H2170	0.255	0.29	0.255	0.254	0.268	0.57	0.639	0.573	0.615	0.591	0.746	0.848	0.661	0.657	0.469	0.488	0.452	0.439
NCI-H2347	0.948	0.949	0.983	0.872	0.922	0.578	0.558	0.514	0.633	0.537	0.505	0.489	0.35	0.228	0.571	0.585	0.49	0.34
NCI-H2405	1.07	1.08		1.01	1	0.833	0.881	0.915	0.929	0.78	0.734	0.673	0.692	0.478	0.733	0.751	0.736	0.615
NCI-H3122	1.15	1.04	1.05	0.986	1.05	0.644	0.671	0.637	0.667	0.603	0.397	0.351	0.305	0.268	0.401	0.394	0.401	0.452
PC-3 [JPC-3]	0.474	0.474	0.434	0.465	0.475	1.15	1.19	1.21	1.15	1.04	0.991	0.813	0.769	0.655	0.786	0.745	0.796	0.798
PC-14	0.367	0.328	0.291	0.361	0.323	0.256	0.297	0.245	0.302	0.226	0.529	0.486	0.532	0.434	0.241	0.2	0.227	0.179
